Measurements from publication PMC6086658, “Unified mechanisms for self-RNA recognition by RIG-I Singleton-Merten syndrome variants” (eLife, 2018).
Substitutions are numbered along the chain they refer to.

Tests used:
[1] = biological target: T1, RIG-I C268F (Homo sapiens, UniProt O95786, C268F); test: MANT-nucleotide binding, tryptophan fluorescence FRET
T1 construct: made in house; host or cells: High Five (Trichoplusia ni) insect cells, baculovirus, pFBDM vector
T1 sequence (O95786 1-925 C268F): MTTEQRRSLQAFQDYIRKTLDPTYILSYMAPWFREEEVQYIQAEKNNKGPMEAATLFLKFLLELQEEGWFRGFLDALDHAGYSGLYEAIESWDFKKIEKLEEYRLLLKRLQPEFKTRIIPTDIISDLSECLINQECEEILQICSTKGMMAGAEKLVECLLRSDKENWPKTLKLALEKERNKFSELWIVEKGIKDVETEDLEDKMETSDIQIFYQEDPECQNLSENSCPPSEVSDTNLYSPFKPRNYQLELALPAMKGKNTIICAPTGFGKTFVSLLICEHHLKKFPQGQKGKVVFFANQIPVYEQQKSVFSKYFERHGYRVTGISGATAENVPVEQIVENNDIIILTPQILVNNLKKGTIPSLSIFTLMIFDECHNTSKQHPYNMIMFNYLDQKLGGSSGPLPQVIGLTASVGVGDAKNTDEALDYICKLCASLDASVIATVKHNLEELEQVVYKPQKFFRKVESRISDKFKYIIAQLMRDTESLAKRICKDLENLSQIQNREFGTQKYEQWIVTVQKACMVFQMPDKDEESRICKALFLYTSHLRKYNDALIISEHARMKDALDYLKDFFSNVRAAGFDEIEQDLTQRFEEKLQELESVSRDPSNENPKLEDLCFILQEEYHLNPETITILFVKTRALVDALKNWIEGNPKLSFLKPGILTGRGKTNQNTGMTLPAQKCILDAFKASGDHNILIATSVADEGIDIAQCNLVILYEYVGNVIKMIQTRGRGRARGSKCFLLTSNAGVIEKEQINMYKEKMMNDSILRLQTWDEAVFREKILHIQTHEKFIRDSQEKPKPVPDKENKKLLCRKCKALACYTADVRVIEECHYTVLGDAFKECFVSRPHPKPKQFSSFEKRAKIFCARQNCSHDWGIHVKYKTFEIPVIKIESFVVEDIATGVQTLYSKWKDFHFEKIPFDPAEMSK
Protocol: (§1) Binding of MANT-ATP and MANT-ATPγS to different full-length RIG-I mutants (1–925, N-terminal His-tag) was determined via Förster resonance energy transfer from RIG-I to MANT-ATP (Jena Bioscience, Jena, Germany). All samples were prepared in 96-well black chimney microplates. 2.2 µM protein and equimolar concentrations of a 14mer dsRNA (5'-CGACGCUAGCGUCG-3', see 'Protein crystalization') were pre-incubated with different MANT-ATP concentrations (0.2 µM – 200 µM) for 15 min at room temperature in assay buffer (25 mM HEPES, 50 mM NaCl, 5 mM MgCl2, 1 mM DTT, pH 7). Fluorescence of MANT-ATP was measured in a TECAN M1000 microplate reader at λex/em = 290/448 nm, gain = 170 using an average of five reads per well. Assays were performed four times in independent experiments using the same protein purification batch. For determination of affinities fluorescence values were fitted to Equation (1) using R, where y is the fluorescence, [P] is the protein concentration, Bmax is the maximal fluorescence and KD is the dissociation constant. Fitting was performed globally on all available datasets. Representative values in figures are mean values ± SD.

[2] = biological target: T2, RIG-I K270I (Homo sapiens, UniProt O95786, K270I); test: as above
T2 construct: different full-length RIG-I mutants (1–925, N-terminal His-tag); made in house; host or cells: High Five (Trichoplusia ni) insect cells, baculovirus, pFBDM vector
T2 sequence (O95786 1-925 K270I): T1 sequence (O95786 1-925 C268F) with F268C, K270I
Protocol: as §1

[3] = presence of equimolar 14mer dsRNA, n.f. = no fit possible as no saturation was reached

- Kd ([1]; absence of RNA, n = 4, read-out: Affinity (KD) to RIG-I C268F): 166 ± 34 µM
- Affinity (KD) to RIG-I C268F + RNA [1, 3]: n.f.
- Kd ([2]; absence of RNA, n = 4, read-out: Affinity (KD) to RIG-I K270I): 298 ± 81 µM
- Affinity (KD) to RIG-I K270I + RNA [2, 3]: n.f.
Substance: MANT-ATP
